The text below walks through data of patent publication US20020009782A1, “Heparin and heparan sulfate derived oligosaccharides and a method for their manufacture” (priority 1999, published 2002).

Test [1] deals with mammary adenocarcinoma cells. The conditions noted are these: lung metastases induced by mammary adenocarcinoma cells, experimental animals; cited from earlier work.
The next test concerns B16 melanoma. The conditions noted are these: lung metastases induced by B16 melanoma, experimental animals; cited from earlier work.
The next test concerns Lewis lung carcinoma. The conditions noted are these: lung metastases induced by Lewis lung carcinoma, experimental animals; cited from earlier work.
The nature of test [2]: Measurement of unsaturated bond formation (lyase activity) using absorbance at 232 nm. The test is classed as biochemical. To be noted: 0.2% heparin, measured every 10 minutes for 1 hour, FIG. 1. Here is the method: Measurement of Unsaturated Bond Formation Using Absorbance at 232 nm:
Reactions were prepared in 1 ml quartz cuvettes. For heparinase I [Lavobacterium heparinum, Sigma, Cat. No. H2519], 3 units enzyme were added to a reaction mixture A (18 mM Tris buffer pH 7.5, 45 mM NaCl, 4 mM CaCl2, 0.01% BSA) containing 0.2% heparin. For recombinant heparanase (expressed in insect cells, see, U.S. patent application Ser. Nos. 08/922,170; 09/071,618; 09/109,386; 09/258,892 and 09/260,038 and in PCT/US98/17954 and PCT/US98/09256, all of which are incorporated herein by reference), 5 mg enzyme were added to a reaction mixture B (20 mM phosphate citrate buffer pH 5.4, 1 mM CaCl2, 1 mM NaCl and 0.01% BSA) containing 0.2% heparin. Absorbance at 232 nm was measured in a Cary 100 (Varian) spectrophotometer every 10 minutes for a period of 1 hour.
Partially purified recombinant human heparanase expressed in insect cells was examined to determine whether it is a lyase or hydrolase. A bacterial heparinase I which is a lyase was used as a control. The formation of an unsaturated bond by lyase activity as measured by 232 nm absorbance was performed as described under experimental procedures above.

laminarin sulfate: the “reduction of the incidence of lung metastases” value (in test [1]; in the test with B16 melanoma; with Lewis lung carcinoma) was above 90% each time.

On to heparinase I, for which the “lyase activity: 232 nm absorbance (formation of Δ4,5 unsaturated bond of heparin)” value in test [2] is “linear increase”.
